Entries after “also recorded” stand apart in the source; their conditions may differ.

The values below come from patent publication US20230210891A1, “POLYSACCHARIDE COMPOSITIONS AND THERAPEUTIC GELS” (The University of Birmingham, priority 2020, published 2023).

In one assay the target is T1, Collagen - Rat tail (Rattus norvegicus, UniProt P02454+P02466).
T1 construct: purchased Corning; host or cells: rat tail
Kind of assay: Collagen fibrillogenesis assay (turbidity, 405 nm plate reader). The settings on record: for inhibition of collagen fibrillogenesis / collagen fibril formation: increasing doses of polymer. The format is biochemical. How it is done: Collagen fibrillogenesis was undertaken using collagen acquired from Corning to assess the ability of carrageenans with different degrees of sulphation, gellan gum (LA) and heparan sulphate on their ability to alter fibrillogenesis.
• PBS - Dulbecco’s PBS pH 7.4 • Carrageenans (iota and kappa) (Sigma) • (CGLA) (Kelcogel; Lot #: 5C1623A) • Heparan sulphate (Tinzaparin - mw ~ 9000) • Collagen - Rat tail - Corning 4.04 mg/ml • Deionised water
1. Preparation of stock solutions: • a. A 0.2% (w/v) solution of both carrageenans, gellan and heparan in water were prepared. (0.1 g polymer in 50 ml water) • b. Mixtures were stirred until fully dispersed/hydrated. (prevent water loss by covering the beaker)
2. Preparation of Buffers: • a. PBS diluent buffer; • i. To 200 ml deionised water add sodium phosphate (0.35 g) (0.348 g)and sodium chloride (2.05 g) (2.061 g) • ii. Adjust pH to 7.40 and adjust final volume to 250 ml. • iii. Store at room temperature. • b. PBS reaction buffer; • i. To 200 ml deionised water add sodium phosphate (2.07 g) (2.081 g) and sodium chloride (4.09 g) (4.091 g) • ii. Adjust pH to 7.40. • iii. Add deionised water to create a final volume of 250 ml. • iv. Store at room temp.
3. Collagen fibrillogenesis assay: • a. Pipette […] of buffer (PBS) into rows A and B for blanks. • b. Standard curve generated in a dilution plate. Add 150 ml of each preparation into C1, D1 and E1. • c. Add 150 mL of sample to rows F1, G1 and H1. • d. Add […] of buffer (PBS) to the additional columns 2 to 12. • e. Using a multi-channel pipette, preform a 2-fold dilution by transferring […] from column 1 to column 2. Continue serial diluting through to column 12. Discard the extra […] from column 12. • f. Calculate volume of collagen needed to make 10 ml (enough for 1 plate) at a concentration of […] in chilled water and gently mix.
Target conc. (0.8 mg/ml)Collagen stock conc. in mg/ml × 10=ml of collagen required
10 ml- ?ml of collagen required= ??ml of water required • a. Add […] of collagen to each row (B to H). • b. Add 150 ml of phosphate buffer to all of the wells. • c. Incubate for 2-4 hrs at room temperature and analysed using 405 nm plate reader. (correct for the plate by using 570 nm reference)
Each sample was replicated 3 times, two polymers in each plate (2 plates total). Collagen standard and pbs only were obtained on each plate.

For assay [1], the system named is rat experimental model of glaucoma. The assay is described as follows: Study 2: intraocular pressure in rat experimental model of glaucoma (IC TGFβ1). The settings on record: 10 µl eye drop twice a day, day 14 to 28. It is filed as in vivo. Here is the method: A rat experimental model of glaucoma was used. All rats received twice weekly intracameral (IC) injections of 3.5 µl 5 µg/ml TGFβ1 from the start of the experiment (day 0) until the end (day 28). This establishes the experimental glaucoma model.
Intraocular pressure (IOP) measures were taken twice weekly using a rebound tonometer, between the hours of 9-11am (to reduce circadian fluctuations in IOP) and before TGFβ injections were administered.
On day 14 rats then also received a single 10 µl eye drop (ED) of either a composition of the invention or a composition representing the standard of care. The eyedrops were administered by pipette, twice a day, every day between day 14 and day 28. Gellan fluid gels were prepared as describe above, and the various sulphated polysaccharides investigated (dextran sulphate, fucoidan, or heparan sulphate) were mixed into the fluid gel at a concentration of 1 mg/ml prior to administration as a single formulation eye drop.
The most common eye drop prescribed clinically for the treatment of glaucoma is latanoprost 50 µg/ml (Xalatan®). Therefore, this treatment was used in this study for the standard of care (SOC).
The groups investigated in the study were as follows: […]

T1 sequence (P02454 152-1207 limits assumed): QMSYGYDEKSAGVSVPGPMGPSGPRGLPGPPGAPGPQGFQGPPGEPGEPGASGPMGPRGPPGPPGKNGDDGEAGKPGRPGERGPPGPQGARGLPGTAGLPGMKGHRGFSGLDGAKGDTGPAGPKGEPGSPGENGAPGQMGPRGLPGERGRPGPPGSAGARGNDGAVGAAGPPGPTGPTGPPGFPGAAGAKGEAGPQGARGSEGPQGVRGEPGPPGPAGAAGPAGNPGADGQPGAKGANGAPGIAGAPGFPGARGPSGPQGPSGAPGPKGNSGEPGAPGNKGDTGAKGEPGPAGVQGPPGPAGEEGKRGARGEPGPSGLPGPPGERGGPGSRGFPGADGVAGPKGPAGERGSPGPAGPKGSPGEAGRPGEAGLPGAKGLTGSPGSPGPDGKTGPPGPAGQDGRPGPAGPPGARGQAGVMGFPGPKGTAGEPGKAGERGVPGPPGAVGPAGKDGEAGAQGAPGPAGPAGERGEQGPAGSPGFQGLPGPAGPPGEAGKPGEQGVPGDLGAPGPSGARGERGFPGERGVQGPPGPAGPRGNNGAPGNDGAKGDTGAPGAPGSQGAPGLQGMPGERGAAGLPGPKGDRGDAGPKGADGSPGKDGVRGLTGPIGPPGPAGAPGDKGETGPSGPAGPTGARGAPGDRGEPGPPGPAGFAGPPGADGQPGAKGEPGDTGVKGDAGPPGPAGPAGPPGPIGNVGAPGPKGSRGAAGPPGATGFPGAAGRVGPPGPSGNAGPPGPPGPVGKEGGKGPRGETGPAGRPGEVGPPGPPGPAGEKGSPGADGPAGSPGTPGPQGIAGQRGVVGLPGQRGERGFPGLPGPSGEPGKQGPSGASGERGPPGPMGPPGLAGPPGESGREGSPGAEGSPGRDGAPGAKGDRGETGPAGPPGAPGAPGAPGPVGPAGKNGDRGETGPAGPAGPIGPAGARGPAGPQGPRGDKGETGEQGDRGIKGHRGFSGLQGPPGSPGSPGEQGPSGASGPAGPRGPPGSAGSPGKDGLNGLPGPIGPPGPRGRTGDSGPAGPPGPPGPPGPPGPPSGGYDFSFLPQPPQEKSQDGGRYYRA
T1 sequence (P02466 86-1125 limits assumed): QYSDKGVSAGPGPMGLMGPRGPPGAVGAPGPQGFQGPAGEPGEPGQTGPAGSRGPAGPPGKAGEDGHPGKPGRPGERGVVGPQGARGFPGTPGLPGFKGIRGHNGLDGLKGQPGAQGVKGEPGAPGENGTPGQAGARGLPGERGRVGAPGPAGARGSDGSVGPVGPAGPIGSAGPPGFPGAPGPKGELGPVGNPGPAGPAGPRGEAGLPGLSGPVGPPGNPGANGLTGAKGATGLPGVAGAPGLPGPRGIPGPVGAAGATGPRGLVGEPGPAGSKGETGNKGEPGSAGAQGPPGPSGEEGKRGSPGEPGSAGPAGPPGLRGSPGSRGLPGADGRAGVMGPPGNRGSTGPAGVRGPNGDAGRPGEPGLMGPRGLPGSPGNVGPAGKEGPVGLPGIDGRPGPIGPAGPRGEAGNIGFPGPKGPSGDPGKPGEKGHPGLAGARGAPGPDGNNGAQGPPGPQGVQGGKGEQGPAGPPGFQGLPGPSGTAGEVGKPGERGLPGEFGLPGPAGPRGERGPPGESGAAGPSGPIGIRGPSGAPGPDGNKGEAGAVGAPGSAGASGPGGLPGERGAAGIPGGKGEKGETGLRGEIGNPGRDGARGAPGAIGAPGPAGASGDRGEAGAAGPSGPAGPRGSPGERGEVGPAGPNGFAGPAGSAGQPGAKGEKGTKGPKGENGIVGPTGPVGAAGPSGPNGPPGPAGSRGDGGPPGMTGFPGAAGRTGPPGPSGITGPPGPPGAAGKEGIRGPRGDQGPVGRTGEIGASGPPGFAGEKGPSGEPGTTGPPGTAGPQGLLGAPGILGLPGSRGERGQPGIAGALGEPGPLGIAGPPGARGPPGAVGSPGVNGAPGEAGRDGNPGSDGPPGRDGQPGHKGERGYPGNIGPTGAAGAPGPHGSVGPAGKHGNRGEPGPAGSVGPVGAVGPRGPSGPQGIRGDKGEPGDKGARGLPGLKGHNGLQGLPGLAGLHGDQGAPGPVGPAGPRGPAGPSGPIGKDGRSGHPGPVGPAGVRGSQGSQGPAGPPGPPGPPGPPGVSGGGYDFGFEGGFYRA

gellan: the “dose required to achieve a 50% reduction in turbidity (rank order; higher degree of sulphonation requires lower dose)” value at Collagen - Rat tail is “lota > lambda > gellan”. Take dextran sulphate: the “inhibition of collagen fibrillogenesis / collagen fibril formation” value against Collagen - Rat tail is “dose-dependent ability to inhibit collagen fibrillogenesis”. On the same count and under the same terms, in the case of kappa carrageenan it was “inhibit collagen fibril formation”. With `CC(C)OC(=O)CCC/C=C\C[C@@H]1[C@@H](CC[C@@H](O)CCc2ccccc2)[C@H](O)C[C@@H]1O` [SOC, latanoprost], in assay [1], the “IOP compared to glaucomatous eyes without any treatment” value is “significantly reduced IOP”. Consider iota carrageenan, for which, on Collagen - Rat tail, the “dose required to achieve a 50% reduction in turbidity (rank order; higher degree of sulphonation requires lower dose)” value is “lota > lambda > gellan” and the “inhibition of collagen fibrillogenesis / collagen fibril formation” value is listed as “inhibit collagen fibril formation”. For carrageenan, on Collagen - Rat tail, the “inhibition of collagen fibrillogenesis / collagen fibril formation” value is reported as “inhibit collagen fibrillogenesis (indicative of an anti-fibrotic activity) in a dose-dependent manner”.

As for heparan sulphate, the “inhibition of collagen fibrillogenesis / collagen fibril formation” value against Collagen - Rat tail is “inhibit collagen fibrillogenesis (indicative of an anti-fibrotic activity) in a dose-dependent manner; also recorded: inhibit collagen fibril formation”.
